No end group written: not given here.
What was measured:
[1] = injected intracerebroventricularly; cited from earlier work
[2] = target: T1, Y5 receptor (Homo sapiens, UniProt Q15761); details: cited from earlier work
T1 sequence (Q15761 1-445): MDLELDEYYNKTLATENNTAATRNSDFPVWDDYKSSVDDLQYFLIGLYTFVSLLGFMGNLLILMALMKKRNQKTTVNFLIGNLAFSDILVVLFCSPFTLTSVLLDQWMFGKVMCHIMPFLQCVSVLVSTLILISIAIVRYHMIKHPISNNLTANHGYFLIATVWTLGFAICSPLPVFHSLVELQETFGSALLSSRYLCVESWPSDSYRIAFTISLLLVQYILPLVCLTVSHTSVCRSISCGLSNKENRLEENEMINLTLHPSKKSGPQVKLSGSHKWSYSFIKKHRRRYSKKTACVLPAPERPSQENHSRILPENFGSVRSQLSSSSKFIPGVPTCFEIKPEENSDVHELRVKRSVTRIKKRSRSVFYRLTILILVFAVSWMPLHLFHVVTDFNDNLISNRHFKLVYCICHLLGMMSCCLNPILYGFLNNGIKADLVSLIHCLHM

[3] = system: healthy volunteers; details: cited from earlier work
[4] = system: children with Prader-Willi syndrome; details: 100 pmol/kg/h for 90 minutes; cited from earlier work
[5] = system: Male C57BL/6 mice; experiment: In vivo food intake experiments in mice (half-life in the blood judged from appetite suppression); set-up: species or system mouse; details: comparator native human PP; judged from food intake reduction in mice (4-8 h, 0-24 h, 4:1 or 24:1 ratio)
Experimental: In Vivo Food Intake Experiments
Male C57BL/6 mice (20-30 g) were used for all mouse experiments. Mice were individually housed in IVC cages. Animals were randomized by weight and fasted overnight for 16 hrs before intraperitoneal injection at 9 am. All peptide solutions were prepared freshly the morning of the study and injected as 100 ul. Food intake was measured at 1, 2, 3, 4, 6, 8 and 24 hours post injection. The peptide was dosed at 30 nmol/kg, 50 nmol/kg, 100 nmol/kg, 120 nmol/kg, 150 nmol/kg, 300 nmol/kg, 600 nmol/kg or 1000 nmol/kg depending on the activity. In each case, a control of saline and a control of unmodified human Pancreatic Polypeptide was carried out. All statistics are calculated using a one-way ANOVA with Dunnett's post-test or one-way ANOVA with Bonferroni post-test.
A control of saline was used.
FIG. 2 and in the comparative graph of FIG. 3. […] It is hypothesized that that is as a possible result of stronger activity at the receptor and longer activity.
The mouse is a good model for degradation rates in humans, irrespective of the fact that the receptors for PP in mice are different from the human receptor.

[6] = target: human Y4 receptor (Homo sapiens, UniProt P50391); experiment: Human Y Receptor-4 Displacement Assay; details: for binding to the Y4 receptor compared with code 6672: comparator compound of SEQ ID NO:72 (code 6672)
Chain of human Y4 receptor (P50391 whole entry): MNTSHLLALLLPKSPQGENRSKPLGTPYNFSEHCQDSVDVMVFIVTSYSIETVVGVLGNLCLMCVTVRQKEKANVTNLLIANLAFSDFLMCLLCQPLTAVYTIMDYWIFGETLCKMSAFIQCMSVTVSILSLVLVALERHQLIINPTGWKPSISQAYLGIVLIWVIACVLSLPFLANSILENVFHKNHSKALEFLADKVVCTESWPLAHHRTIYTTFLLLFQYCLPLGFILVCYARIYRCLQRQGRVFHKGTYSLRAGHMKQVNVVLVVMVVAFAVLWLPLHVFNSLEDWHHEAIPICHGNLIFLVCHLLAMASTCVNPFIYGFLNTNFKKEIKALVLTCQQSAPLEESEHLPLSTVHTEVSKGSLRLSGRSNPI
Description: Human Y Receptor-4 Displacement Assay:
The principle of the displacement assay is a fixed quantity of radiolabeled ligand competes with varying doses of a ‘cold’ (non-labelled) ligand for a limited number of receptor binding sites, enabling quantification of the affinity of the cold ligand to the receptor.
The cDNA clone was transformed into competent E.coli so a larger preparation of DNA could be produced which was transfected into HEK-293T cells. Using antibiotics, cells expressing the transfected cDNA were selected for, and those cells containing the receptor plasmid were scaled up for a cell membrane preparation. Cells were harvested from culture flasks by scraping, and then homogenized and the membrane separated from other cellular material by differential centrifugation.
For the displacement assay all reagents are prepared in displacement assay buffer (25 mM HEPES pH 7.4, 2 mM MgCl2, 4 mM CaCl2 1% BSA, 4 mM) containing protease inhibitors (2 mM phenylmethanesulphonylfluoride, 0.5 mM diprotin A and 0.5 mM phosphoramidon). One thousand counts/sec/tube ^I125PP (iodinated by the direct iodogen method) is used as the radiolabeled peptide, and the competing peptide is tested at varying concentrations between 10 uM and 0.02 pM, with each concentration tested in a minimum of duplicate. To each assay tube a volume of the prepared membrane, enough for total counts (where no competing peptide is present) of 10000-15000 counts/240 second is added. Reagents are added in the following order: buffer, label competing peptide and cell membrane, with a total volume is 500 μl.
The assay is incubated at room temperature for 90 minutes before the receptor-^125PP complex is separated from free label by centrifugation at 15600 g for 3 minutes. The supernatant is removed and discarded and the pellet resuspended and washed with 500 μl fresh assay buffer and re-centrifuged. After centrifugation and removal of supernatant the radioactivity of the pellet was measured for 240 seconds using a γ-counter. Specific binding is calculated as the difference between the amount of ^125I-PP bound in the absence (total) and presence (non-specific) of unlabelled peptide. From the binding data, an IC50 for the competing peptide is calculated. Each peptide is tested on a minimum of two separate occasions.

[7] = system: mice; details: peripheral administration; cited from earlier work

Substance: 2-36[K^4, RYYSA^19-23]PP
- effect on food intake [1]: strong stimulatory effect on food intake
- affinity to the Y5-receptor [2]: strong affinity

Substance: [K^4]PP
- effect on food intake [1]: strong stimulatory effect on food intake
- affinity to the Y5-receptor [2]: strong affinity

Substance: Ala Pro Leu Glu Pro Val Tyr Pro Gly Asp Asn Ala Thr Pro Glu Gln Met Ala Gln Tyr Ala Ala Asp Leu Arg Arg Tyr Ile Asn Met Leu Thr Arg Pro Arg Tyr NH2 [native human PP]
- reduction in energy intake ([3]; infusion 5 pmol/kg/min (300 pmol/kg/h) for 90 minutes): 11%
- effect on appetite and food intake ([3]; infusion 10 pmol/kg/min (600 pmol/kg/h) for 90 minutes): reduce appetite and food intake
- decrease in 24 hour cumulative energy intake ([3]; infusion 10 pmol/kg/min for 90 minutes): 25%
- effect on appetite [4]: no effect on appetite

Substance: 6435 (KPLEPVYPGDNATPEQMAQYAADLRRYINMLTRPRY) [compound 6435]
- half-life in the blood compared with native human PP [5]: longer half-life

Substance: 6675 (KPLEPVYPGDNATPEELNRYYASLRRYINMLTRPRY) [compound 6675]
- binding to the Y4 receptor compared with code 6672 [6]: stronger binders

Substance: 7218 (AAPLEPVYPGDNATPEQMAQYAADLRRYINKLTRPRY) [compound 7218]
- binding to the Y4 receptor compared with codes 6433 and 4055855 ([6]; comparators SEQ ID NO:9 (Ala 0, code 6433) and SEQ ID NO:281 (Lys 30, code 4055855)): binds the Y4 receptor better

Substance: mouse PP: mouse Pancreatic Polypeptide, literature (APLEPMYPGDYATPEQMAQYETQLRRYINTLTRPRY; ends and bridges not checked; UniProt P10601 30-65, looked up)
- effect on energy balance, food intake and energy expenditure [7]: induce a negative energy balance by decreasing food intake and stimulating energy expenditure

Substance: 7215 (AAPLEPVYPGDNATPEQMAQYAAALRRYINKLTRPRY) [compound 7215]
- binding at the Y4 receptor compared with code 7214 ([6]; comparator SEQ ID NO:167 (code 7214)): still further better binding at the Y4 receptor

Substance: 6674 (KPLEPVYPGDNATPEELNRYYASLRRYINMLTRPRY) [compound 6674]
- binding to the Y4 receptor compared with code 6672 [6]: stronger binders

Substance: [RYYSA^19-23]PP
- effect on food intake [1]: strong stimulatory effect on food intake
- affinity to the Y5-receptor [2]: strong affinity

Substance: 4059668 (GAPLEPHFPGDNATPEEMAKYAAELRRYINKLTRPRY; synthetic hPP analogue peptide) [compound 4059668]
- half-life in the blood compared with native human PP [5]: longer half-life

Reference: patent US20100279930A1, “HUMAN PANCREATIC POLYPEPTIDE (HPP) ANALOGUES AND THEIR EFFECTS ON FEEDING BEHAVIOUR” (priority 2007, published 2010)
